Measurements as given in patent publication US4194006A, “Therapeutic application of acetyl-d,l-carnitine and other acyl derivatives of d,l-carnitine” (priority 1977, dated 1980).
Read-outs that look alike come from different tables or passages of the source.

Experiments:
isolated rabbit hearts [1] = assay: coronary vasodilator effect: coronary flow, isolated heart (Langendorff)
Method: (§1) The cardiokinetic effect on isolated heart was also investigated as follows. Rabbit hearts isolated by the Langendorff method were perfused with oxygenized ringer solution at 38.2° C. The isometric contractions, electrocardiogram and coronary flow were recorded using a "Battaglia-Rangoni" polygraph. By removing the oxygen from the perfusion fluid, metabolic damage was induced in the cardia muscle, up to an 80% reduction in the cardiac contractile force.
(§2) Under these conditions of prolonged anoxia the aerobic glycolysis of the myocardium is slowed down, accompanied by the storage of acid catabolites due to both the accumulation of pyruvic acid and its conversion to lactic acid which cannot be utilized because of the depression of pyridine enzymes, such as LDH (lactodehydrogenase). This has repercussions on the anaerobic glycolysis affecting an ever increasing number of enzymes, accompanied by a progressive and increasingly critical exhaustion of the myocardium. Thus a whole series of cardiac muscle fatigue levels occurs which can be observed by the behavior of the examined parameters, namely the contractile force, coronary flow, heart rate and cardiac rhythm. As soon as the contractile force was reduced by 80%, the perfusion fluid was once again oxygenized either without adding other compounds (controls) or with the addition of the compounds under examination.

in vivo = conditions: mouse, in vivo, iv
Description: The tolerance of acetyl-d,l-carnitine and of the other aforementioned acyl derivatives of the formula (I), as well as their salts were investigated by comparing the LD50 obtained by administering the compounds intravenously in mice with the LD50 obtained under the same experimental conditions by intravenous injection of d,l-carnitine.

isolated rat atrium = assay: antiarrhythmic effect, isolated rat atrium method of M. Libonati and G. Segre; conditions: Rattus norvegicus
isolated rabbit hearts [2] = assay: cardiokinetic effect on isolated heart (Langendorff): contractile force after anoxia, positive inotropic effect; conditions: 10 minutes from interruption of anoxic period
Method: as §1, §2
Table 3 below gives the percentage values of the contractile force of the heart, showing a positive inotropic effect, calculated after 10 minutes from the interruption of the anoxic period (myocardial restoration).

female rats = assay: antifatigue effect: rota-rod; assay type: in vivo, rat; conditions: Rattus norvegicus, ip, 0.25 h; for responders at 100 mg/kg: read-out: percentage of animals staying on the rota-rod more than 180 seconds, 100 mg/kg i.p.; for responders at 200 mg/kg: read-out: percentage of animals staying on the rota-rod more than 180 seconds, 200 mg/kg i.p.; for responders at 400 mg/kg: read-out: percentage of animals staying on the rota-rod more than 180 seconds, 400 mg/kg i.p.; for responders at 600 mg/kg: read-out: percentage of animals staying on the rota-rod more than 180 seconds, 600 mg/kg i.p.; for responders at 300 mg/kg: read-out: percentage of animals staying on the rota-rod more than 180 seconds, 300 mg/kg i.p.
Method: The antifatigue effect was also examined with the following results. The antifatigue effect was investigated by administering the compounds of the formula (I) according to the present application to female rats intraperitoneally in saline solution and saline solution alone to the controls by the same route. Every 15 minutes (sessions) after treatment, the animals were placed on a 6 cm diameter rod, rotating at 16 r.p.m. The percentage of the animals capable of staying on the rota-rod for a duration of more than 180 seconds was then recorded.

[3] = read-out: Mean percent variation versus controls: excitability (-%)
[4] = read-out: Mean percent variation versus controls: frequency max (-%)
[5] = read-out: Mean percent variation versus controls: refractory period (+%)
[6] = read-out: Mean percent variation versus controls: rheobase (+%)
[7] = session 6 (every 15 minutes), * p < 0.05

With `CC(=O)OC(CC(=O)[O-])C[N+](C)(C)C` (racemic) [acetyl-d,l-carnitine] the “Coronary flow, Mean ± S.E.” value (isolated rabbit hearts [1]; 1·10^-5 g/lt) was 90.05 ± 7.10%, the “Coronary flow, Mean ± S.E.” value (isolated rabbit hearts [1]; 1·10^-6 g/lt) was 75.80 ± 5.92% and the “Coronary flow, Mean ± S.E.” value (isolated rabbit hearts [1]; 5·10^-6 g/lt) was 76.30 ± 11.9%. It also gave an LD50 (in vivo) of roughly 770 mg/kg, an inhibition at 0.001 µg/mL (isolated rat atrium; [3]) of 7.18% and an inhibition at 0.01 µg/mL (isolated rat atrium; [3]) of 18.6%. It also gave an inhibition at 0.1 µg/mL (isolated rat atrium; [3]) of 71%, an inhibition at 0.001 µg/mL (isolated rat atrium; [4]) of 6.08% and an inhibition at 0.01 µg/mL (isolated rat atrium; [4]) of 15%. The inhibition at 0.1 µg/mL (isolated rat atrium; [4]) was 23.6%, the activation at 0.001 µg/mL (isolated rat atrium; [5]) was 14.5% and the activation at 0.01 µg/mL (isolated rat atrium; [5]) was 16.8%. It also gave an activation at 0.1 µg/mL (isolated rat atrium; [5]) of 27.4%, an activation at 0.001 µg/mL (isolated rat atrium; [6]) of 3.32% and an activation at 0.01 µg/mL (isolated rat atrium; [6]) of 15.3%. For the same molecule, the activation at 0.1 µg/mL (isolated rat atrium; [6]) was 21.7%, the “Contractile force, Mean ± S.E.” value (isolated rabbit hearts [2]; 1·10^-5 g/lt) was 77.5 ± 3.29% and the “Contractile force, Mean ± S.E.” value (isolated rabbit hearts [2]; 1·10^-6 g/lt) was 32.5 ± 4.38%. For the same molecule, the “Contractile force, Mean ± S.E.” value (isolated rabbit hearts [2]; 5·10^-6 g/lt) was 42.9 ± 6.22%, the responders at 100 mg/kg (female rats; session 1 (every 15 minutes)) was 0% and the responders at 100 mg/kg (female rats; session 2 (every 15 minutes)) was 0%. It also gave a responders at 100 mg/kg (female rats; session 3 (every 15 minutes)) of 0%, a responders at 100 mg/kg (female rats; session 4 (every 15 minutes)) of 0% and a responders at 100 mg/kg (female rats; session 5 (every 15 minutes)) of 0%. The responders at 100 mg/kg (female rats; session 6 (every 15 minutes)) was 10%, the responders at 200 mg/kg (female rats; session 1 (every 15 minutes)) was 0% and the responders at 200 mg/kg (female rats; session 2 (every 15 minutes)) was 0%. It also gave a responders at 200 mg/kg (female rats; session 3 (every 15 minutes)) of 0%, a responders at 200 mg/kg (female rats; session 4 (every 15 minutes)) of 30% and a responders at 200 mg/kg (female rats; session 5 (every 15 minutes), * p < 0.05) of 50%. For the same molecule, the responders at 200 mg/kg (female rats; [7]) was 50%, the responders at 400 mg/kg (female rats; session 1 (every 15 minutes)) was 0% and the responders at 400 mg/kg (female rats; session 2 (every 15 minutes)) was 10%. It also gave a responders at 400 mg/kg (female rats; session 3 (every 15 minutes)) of 10%, a responders at 400 mg/kg (female rats; session 4 (every 15 minutes)) of 10% and a responders at 400 mg/kg (female rats; session 5 (every 15 minutes)) of 40%. For the same molecule, the responders at 400 mg/kg (female rats; [7]) was 50%, the responders at 600 mg/kg (female rats; session 1 (every 15 minutes)) was 0% and the responders at 600 mg/kg (female rats; session 2 (every 15 minutes)) was 0%. The responders at 600 mg/kg (female rats; session 3 (every 15 minutes)) was 10%, the responders at 600 mg/kg (female rats; session 4 (every 15 minutes)) was 20% and the responders at 600 mg/kg (female rats; session 5 (every 15 minutes)) was 40%. For the same molecule, the responders at 600 mg/kg (female rats; [7]) was 50%.

With `CCCCCCCCCCCCCCCC(=O)OC(CC(=O)[O-])C[N+](C)(C)C` (racemic) [palmitoyl-d,l-carnitine] the “Coronary flow, Mean ± S.E.” value (isolated rabbit hearts [1]; 1·10^-5 g/lt) was 84.68 ± 7.20%, the “Coronary flow, Mean ± S.E.” value (isolated rabbit hearts [1]; 1·10^-6 g/lt) was 78.15 ± 7.21% and the “Coronary flow, Mean ± S.E.” value (isolated rabbit hearts [1]; 5·10^-6 g/lt) was 72.20 ± 12.73%. It also gave an inhibition at 0.001 µg/mL (isolated rat atrium; [3]) of 0%, an inhibition at 0.01 µg/mL (isolated rat atrium; [3]) of 3.01% and an inhibition at 0.1 µg/mL (isolated rat atrium; [3]) of 32.8%. The inhibition at 0.001 µg/mL (isolated rat atrium; [4]) was 16.9%, the inhibition at 0.01 µg/mL (isolated rat atrium; [4]) was 8.14% and the inhibition at 0.1 µg/mL (isolated rat atrium; [4]) was 80.5%. It also gave an activation at 0.001 µg/mL (isolated rat atrium; [5]) of 0%, an activation at 0.01 µg/mL (isolated rat atrium; [5]) of 13.7% and an activation at 0.1 µg/mL (isolated rat atrium; [5]) of 34.1%. For the same molecule, the activation at 0.001 µg/mL (isolated rat atrium; [6]) was 22.2%, the activation at 0.01 µg/mL (isolated rat atrium; [6]) was 7.33% and the activation at 0.1 µg/mL (isolated rat atrium; [6]) was 6.91%. The “Contractile force, Mean ± S.E.” value (isolated rabbit hearts [2]; 1·10^-5 g/lt) was 38.2 ± 4.75%, the “Contractile force, Mean ± S.E.” value (isolated rabbit hearts [2]; 1·10^-6 g/lt) was 27.8 ± 4.71% and the “Contractile force, Mean ± S.E.” value (isolated rabbit hearts [2]; 5·10^-6 g/lt) was 33.4 ± 3.08%. It also gave a responders at 300 mg/kg (female rats; session 1 (every 15 minutes)) of 0%, a responders at 300 mg/kg (female rats; session 2 (every 15 minutes)) of 0% and a responders at 300 mg/kg (female rats; session 3 (every 15 minutes)) of 0%. It also gave a responders at 300 mg/kg (female rats; session 4 (every 15 minutes)) of 0%, a responders at 300 mg/kg (female rats; session 5 (every 15 minutes)) of 10% and a responders at 300 mg/kg (female rats; session 6 (every 15 minutes)) of 10%. For the same molecule, the responders at 400 mg/kg (female rats; session 1 (every 15 minutes)) was 0%, the responders at 400 mg/kg (female rats; session 2 (every 15 minutes)) was 0% and the responders at 400 mg/kg (female rats; session 3 (every 15 minutes)) was 0%. The responders at 400 mg/kg (female rats; session 4 (every 15 minutes)) was 10%, the responders at 400 mg/kg (female rats; session 5 (every 15 minutes)) was 20% and the responders at 400 mg/kg (female rats; [7]) was 20%. For the same molecule, the responders at 600 mg/kg (female rats; session 1 (every 15 minutes)) was 0%, the responders at 600 mg/kg (female rats; session 2 (every 15 minutes)) was 0% and the responders at 600 mg/kg (female rats; session 3 (every 15 minutes)) was 0%. The responders at 600 mg/kg (female rats; session 4 (every 15 minutes)) was 20%, the responders at 600 mg/kg (female rats; session 5 (every 15 minutes)) was 20% and the responders at 600 mg/kg (female rats; [7]) was 30%.

For `CCC(=O)OC(CC(=O)[O-])C[N+](C)(C)C` (racemic) [propionyl-d,l-carnitine], the “Coronary flow, Mean ± S.E.” value (isolated rabbit hearts [1]; 1·10^-5 g/lt) was 89.27 ± 7.24%, the “Coronary flow, Mean ± S.E.” value (isolated rabbit hearts [1]; 1·10^-6 g/lt) was 80.61 ± 7.56% and the “Coronary flow, Mean ± S.E.” value (isolated rabbit hearts [1]; 5·10^-6 g/lt) was 78.76 ± 11.03%. The inhibition at 0.001 µg/mL (isolated rat atrium; [3]) was 2.24%, the inhibition at 0.01 µg/mL (isolated rat atrium; [3]) was 28.4% and the inhibition at 0.1 µg/mL (isolated rat atrium; [3]) was 14.7%. It also gave an inhibition at 0.001 µg/mL (isolated rat atrium; [4]) of 10.7%, an inhibition at 0.01 µg/mL (isolated rat atrium; [4]) of 11.4% and an inhibition at 0.1 µg/mL (isolated rat atrium; [4]) of 7.65%. It also gave an activation at 0.001 µg/mL (isolated rat atrium; [5]) of 8.16%, an activation at 0.01 µg/mL (isolated rat atrium; [5]) of 14% and an activation at 0.1 µg/mL (isolated rat atrium; [5]) of 19.3%. For the same molecule, the activation at 0.001 µg/mL (isolated rat atrium; [6]) was 3.57%, the activation at 0.01 µg/mL (isolated rat atrium; [6]) was 51.3% and the activation at 0.1 µg/mL (isolated rat atrium; [6]) was 52.1%. The “Contractile force, Mean ± S.E.” value (isolated rabbit hearts [2]; 1·10^-5 g/lt) was 60.1 ± 3.12%, the “Contractile force, Mean ± S.E.” value (isolated rabbit hearts [2]; 1·10^-6 g/lt) was 32.0 ± 5.06% and the “Contractile force, Mean ± S.E.” value (isolated rabbit hearts [2]; 5·10^-6 g/lt) was 38.4 ± 4.86%. It also gave a responders at 300 mg/kg (female rats; session 1 (every 15 minutes)) of 0%, a responders at 300 mg/kg (female rats; session 2 (every 15 minutes)) of 0% and a responders at 300 mg/kg (female rats; session 3 (every 15 minutes)) of 0%. The responders at 300 mg/kg (female rats; session 4 (every 15 minutes)) was 10%, the responders at 300 mg/kg (female rats; session 5 (every 15 minutes)) was 20% and the responders at 300 mg/kg (female rats; session 6 (every 15 minutes)) was 40%. For the same molecule, the responders at 400 mg/kg (female rats; session 1 (every 15 minutes)) was 0%, the responders at 400 mg/kg (female rats; session 2 (every 15 minutes)) was 0% and the responders at 400 mg/kg (female rats; session 3 (every 15 minutes)) was 10%. The responders at 400 mg/kg (female rats; session 4 (every 15 minutes)) was 20%, the responders at 400 mg/kg (female rats; session 5 (every 15 minutes)) was 20% and the responders at 400 mg/kg (female rats; [7]) was 40%. For the same molecule, the responders at 600 mg/kg (female rats; session 1 (every 15 minutes)) was 0%, the responders at 600 mg/kg (female rats; session 2 (every 15 minutes)) was 10% and the responders at 600 mg/kg (female rats; session 3 (every 15 minutes)) was 20%. It also gave a responders at 600 mg/kg (female rats; session 4 (every 15 minutes)) of 30%, a responders at 600 mg/kg (female rats; session 5 (every 15 minutes)) of 40% and a responders at 600 mg/kg (female rats; [7]) of 40%.
